# Source: patent US10934263B2, “Charged ion channel blockers and methods for use” (Nocion Therapeutics, Inc., priority 2019, dated 2021)
# Molecular target: T1, NaV1.7 (Homo sapiens, UniProt Q15858)
# T1 construct: expressed in transfected cells; tetracycline-inducible, kept under hygromycin and blasticidin
# Experiment: Whole cell patch clamp, external block of NaV1.7 current (compound in external solution)
# Assay type: cell-based
# Settings: % inhibition at test concentration 1,000 μM, compound applied externally; read-out: Nav1.7 Extracellular Inhibition
# Description: Representative compounds of the invention were synthesized according to the described methods and tested for the ability to inhibit voltage-gated sodium channels.
# NaV1.7 was expressed upon induction with tetracycline. Cells were cultured in DMEM containing 10% dialyzed Fetal Bovine Serum (VWR, Radnor, Pa.), 1% Glutamax (VWR, Radnor, Pa.), 1% Penicillin-Streptomycin (VWR, Radnor, Pa.), 100 mg/L Hygromycin (Thermo Fisher Scientific, Waltham, Mass. and 5 mg/L Blasticidin (Alfa Aesar, Haverhill, Mass.). Cells were grown and maintained at 37° C. in a humidified environment containing 10% CO2 in air. Cells were detached from the culture flask for passage and harvested using 0.05% Trypsin-EDTA (Thermo Fisher Scientific, Waltham, Mass.). To induce NaV1.7, cells were induced with tetracycline (0.1-1 μg/mL, IBI Scientific, Peosta, Iowa) the day before recording and plated onto 24-well plates. Cells were washed with DPBS (VWR, Radnor, Pa.), trypsinized and then triturated five times in 10 mL of growth media to break apart cell aggregates. For one 24-well plate, 2 mL of cell suspension was mixed with 23 mL of fresh growth media and 0.1-1 μg/mL tetracycline added. 1 ml of mixed media with cells was then added to each well of a 24-well plate, with a 12 mm coverslip already placed in the bottom of the well. Cells were then incubated in 37° C. and 10% CO2 overnight.
# The intracellular solution contained the following (in mM) CsCl 135, NaCl 10, EGTA 10, HEPES 10, MgCl2 2, adjusted to pH 7.2 with CsOH. The external solution was a normal Ringer solution containing (in mM) NaCl 155, HEPES 10, glucose 10, KCl 3.5, CaCl2 1.5, MgCl2 1 adjusted to pH 7.4 with NaOH. CsCl is from Alfa Aesar, Haverhill, Mass. All other chemicals are from Sigma-Aldrich, St. Louis, Mo. In order to test the degree of internal block by test compounds the compounds were dissolved in internal solution at the indicated test concentration. […] In order to test the degree of external block by test compounds the compounds were dissolved in external solution at the indicated test concentration.
# 18-24 hours after cells were induced with tetracycline, coverslips were placed into a chamber filled with Normal Ringer solution at room temperature and the chamber placed on a microscope. Pipettes were pulled from borosilicate glass on a P97 puller (Sutter Instrument, Novato, Calif.) and polished with a MF-830 Microforge (Narishige International USA, Inc, Amityville, N.Y.) to have a resistance of 1.5-2.5 MΩ when filled with CsCl internal solution at room temperature. Healthy cells (those that are round and translucent with no visible blemishes) were chosen for seal formation. A seal was formed between the pipette and the cell, and a brief pulse of suction was used to “break in” and establish the whole-cell configuration. The membrane potential was held at −100 mV before the voltage protocol began. Only cells with series resistance between 1.5-5 MΩ were retained for analysis. The voltage protocol was as follows: Cells were held at −100 mV for 12 ms followed by a hyperpolarizing step to −105 mV for 12 ms to monitor the leak. Cells were then stepped back to −100 mV for 40 ms. Cells were then depolarized to −20 mV for 10 ms and then returned to −100 mV for 26 ms.
# Once the recording was started, the voltage protocol was run at 30 second intervals for 5 minutes to get a stable baseline. This is followed by 5 Hz stimulation of the same voltage protocol run until the end of experiment. […] The test compound is added for 5 minutes before washing out with normal Ringer's solution. Currents were recorded using PatchMaster software with Heka EPC10 (HEKA Electronics, Lambrecht, Germany). Only cells with inward current amplitudes at −20 mV between 400 pA and 4 nA were accepted. In addition, cells having leak currents greater than 10% of their current amplitudes were discarded. […]
# T1 sequence (Q15858 whole entry): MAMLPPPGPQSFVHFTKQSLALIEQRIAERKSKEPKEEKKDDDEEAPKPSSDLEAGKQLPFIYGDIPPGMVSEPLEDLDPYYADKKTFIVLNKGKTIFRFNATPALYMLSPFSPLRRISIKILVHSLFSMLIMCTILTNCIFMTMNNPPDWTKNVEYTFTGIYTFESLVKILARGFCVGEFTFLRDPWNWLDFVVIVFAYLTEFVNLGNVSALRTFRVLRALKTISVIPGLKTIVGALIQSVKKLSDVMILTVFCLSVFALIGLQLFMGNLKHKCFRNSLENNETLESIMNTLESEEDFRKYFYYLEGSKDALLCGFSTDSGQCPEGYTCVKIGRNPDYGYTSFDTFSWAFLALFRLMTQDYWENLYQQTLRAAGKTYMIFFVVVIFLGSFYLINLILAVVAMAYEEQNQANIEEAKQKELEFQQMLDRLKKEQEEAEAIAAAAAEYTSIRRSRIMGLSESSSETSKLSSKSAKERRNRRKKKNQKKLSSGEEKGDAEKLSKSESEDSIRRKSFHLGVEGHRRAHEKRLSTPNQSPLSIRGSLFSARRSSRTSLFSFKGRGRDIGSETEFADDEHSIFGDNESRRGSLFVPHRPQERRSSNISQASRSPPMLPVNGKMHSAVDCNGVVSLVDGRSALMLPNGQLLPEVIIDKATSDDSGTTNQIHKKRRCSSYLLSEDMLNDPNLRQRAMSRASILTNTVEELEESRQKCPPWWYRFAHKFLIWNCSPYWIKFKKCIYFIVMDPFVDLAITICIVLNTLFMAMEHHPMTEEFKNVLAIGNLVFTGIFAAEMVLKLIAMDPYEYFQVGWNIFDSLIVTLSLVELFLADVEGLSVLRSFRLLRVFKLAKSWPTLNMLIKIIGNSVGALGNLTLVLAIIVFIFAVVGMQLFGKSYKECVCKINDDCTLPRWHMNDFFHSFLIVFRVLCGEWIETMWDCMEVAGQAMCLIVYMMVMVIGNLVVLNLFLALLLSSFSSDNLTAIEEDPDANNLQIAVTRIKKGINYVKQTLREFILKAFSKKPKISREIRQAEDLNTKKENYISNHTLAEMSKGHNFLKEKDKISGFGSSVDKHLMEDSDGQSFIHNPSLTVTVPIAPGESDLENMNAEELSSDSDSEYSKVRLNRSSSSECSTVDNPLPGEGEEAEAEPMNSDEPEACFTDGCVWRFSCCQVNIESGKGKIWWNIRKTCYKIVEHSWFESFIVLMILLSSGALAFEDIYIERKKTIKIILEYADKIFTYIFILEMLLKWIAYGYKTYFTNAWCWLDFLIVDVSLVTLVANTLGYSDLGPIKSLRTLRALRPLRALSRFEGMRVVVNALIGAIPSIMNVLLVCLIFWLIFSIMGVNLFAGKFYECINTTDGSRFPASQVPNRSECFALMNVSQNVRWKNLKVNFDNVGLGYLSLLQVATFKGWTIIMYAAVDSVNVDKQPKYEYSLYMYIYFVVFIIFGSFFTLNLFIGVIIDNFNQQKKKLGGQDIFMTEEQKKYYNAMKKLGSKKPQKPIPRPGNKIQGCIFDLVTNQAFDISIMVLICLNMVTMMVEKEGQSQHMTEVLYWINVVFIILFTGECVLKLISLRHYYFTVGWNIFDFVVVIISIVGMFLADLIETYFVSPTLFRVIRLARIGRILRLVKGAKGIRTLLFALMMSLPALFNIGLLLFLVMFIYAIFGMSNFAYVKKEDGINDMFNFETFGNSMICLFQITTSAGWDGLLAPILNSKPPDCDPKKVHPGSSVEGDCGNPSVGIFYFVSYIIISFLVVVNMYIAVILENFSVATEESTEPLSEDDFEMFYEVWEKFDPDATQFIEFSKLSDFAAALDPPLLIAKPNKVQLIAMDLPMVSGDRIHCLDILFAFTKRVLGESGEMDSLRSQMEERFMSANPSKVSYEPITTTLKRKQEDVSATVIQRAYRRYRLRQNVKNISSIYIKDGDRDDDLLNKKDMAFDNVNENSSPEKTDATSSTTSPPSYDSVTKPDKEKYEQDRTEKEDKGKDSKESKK
row,inhibition at 1000 µM [%],Structure (SMILES)
1,< 40,Cc1cccc(C)c1NC(=O)Cn1ccc[n+]1CC(=O)Nc1c(C)cccc1C [Compound 109]
2,< 40,CCOC(=O)Cn1cc(C)c[n+]1CC(=O)Nc1c(C)cccc1C [Compound 76]
3,< 40,CCOC(=O)CCCn1ccc[n+]1CC(=O)Nc1c(C)cccc1C [Compound 75]
